Measurements published in patent US20250188151A1, “C-JUN ANTAGONIST PEPTIDES” (The University of Bath, priority 2022, published 2025).
Bridge positions count the residues as written; N and C are the ends. Peptide text beside a SMILES is read from it.

What was measured:
[1] = biological target: T1, cJun/TRE DNA interaction (Homo sapiens, UniProt P05412, S292Y); assay: CD cJun/TRE DNA antagonism (shift of TRE DNA peak at ~281 nm, Hill fit); format: biochemical
T1 construct: The same 60 amino acid c-Jun bZIP construct was used for all experiments; His-SUMO (N, cleaved yes); made in house; host or cells: E. coli
T1 sequence (P05412 with tags, fused parts or gaps S292Y): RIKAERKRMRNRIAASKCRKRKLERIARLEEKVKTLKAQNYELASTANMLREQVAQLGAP
Excerpt: Briefly, in TBS the coding region for the essential gene dihydrofolate reductase (DHFR) is mutated to incorporate TRE sites so that introduction of c-Jun to this gene inside E. coli produces a transcriptional block that abrogates cell proliferation. The TRE site-bound c-Jun molecules sterically prevent RNA polymerase transcribing the essential gene and this can only be restored upon introduction of an effective c-Jun/TRE antagonist. Consequently, the survival of a particular cell is controlled by the ability of a peptide library member to remove the c-Jun transcriptional block and therefore to restore DHFR activity. TBS thus facilitates the identification of therapeutically valuable sequences. Further details for the TBS assay are provided in WO2020128015, which is incorporated herein by reference in its entirety. […] The TRE-DNA construct produces a positive CD peak at ˜281 nm, which decreases in intensity upon c-Jun binding. […] This method allows for the calculation of an IC50 value by fitting the titration data to a Hill equation. In some embodiments, the c-Jun antagonist is able to inhibit the DNA-binding activity of c-Jun within 10-fold of the ability of HingeW to inhibit the DNA-binding activity of c-Jun (e.g. the c-Jun antagonist has a reduced ability to inhibit the DNA-binding activity of c-Jun that is within 10-fold of that determined for HingeW). In some embodiments, the c-Jun antagonist is able to inhibit the DNA-binding activity of c-Jun within 9-fold, preferably within 8-fold, more preferably within 7-fold, even more preferably within 6-fold, yet more preferably within 5-fold of the ability of HingeW to inhibit the DNA-binding activity of c-Jun. The ability of the c-Jun antagonist and HingeW to inhibit the DNA-binding activity may be measured using the TBS assay (e.g. by quantifying the number of colonies) or by determining the IC50 using a circular dichroism assay described herein. Optionally, the c-Jun antagonist may have this activity when cross-linked. Methods for cross-linking peptides are described in more detail below.
Therefore, the acidic domain was the initial focus for optimisation. 1 was iteratively truncated (2-6) to investigate the effect on c-Jun binding and c-Jun/TRE DNA antagonism. […] Thermal denaturation experiments were then used to determine the Tm of peptide-c-Jun heterodimers, which was used as an approximate measure of target engagement. CD was also used to investigate the ability of the functional activity of peptides in antagonising the c-Jun/TRE DNA interaction. The TRE-DNA construct used produces a positive CD peak at ˜281 nm (no c-Jun absorbance at this wavelength allows for direct measurement of DNA upon binding) which decreases in intensity upon c-Jun binding. […] This allowed for the calculation of an IC50 value by fitting the titration data to a Hill equation. […] The same 60 amino acid c-Jun bZIP construct was used for all experiments, regardless of antagonist peptide length.

[2] = biological target: cJun bZIP (Homo sapiens, UniProt P05412, S292Y); assay: CD spectra and thermal denaturation of peptide/cJun heterodimers; conditions: for Tm (° C.): peptide (5 μM)/c-Jun (5 μM) heterodimer, Table 6
Chain of cJun bZIP (P05412 with tags, fused parts or gaps S292Y): as above

[3] = biological target: cJun (Homo sapiens, UniProt P05412, S292Y); assay: Isothermal titration calorimetry, Example 2 (PEAQ-ITC); format: binding; parameters: The same 60 amino acid c-Jun bZIP construct was used for all experiments; His-SUMO (N, cleaved yes); made in house; host or cells: E. coli; conditions: for ΔG / ΔH / −TΔS / Stoichiometry, n: ITC; for Stoichiometry, n: c-Jun-peptide interaction
Chain of cJun (P05412 with tags, fused parts or gaps S292Y): as above
Protocol: 2 μL injections of antagonist peptide at 25-200 μM were injected into the cell containing cJun at 2.5-20 μM. Software was used to record and analyse the heat change upon addition. Control experiments involved the injection of the antagonist peptide sample into the cell containing ITC buffer alone to determine the heat of dilution which was subtracted. The resulting binding data were fit to a one site binding model to extract the enthalpy change of binding (ΔH) and the equilibrium binding constant (KD), from which the free energy change of binding (ΔG) and the entropy change of binding (ΔS) was calculated (Wiseman et al., 1989). Thermodynamic parameters are presented as an average of two independent experiments with errors given as one standard deviation.

[4] = CD spectra and thermal denaturation of peptide-only samples (helicity, homodimer Tm); conditions: cyclised vs its linear form
[5] = Serum stability (LC-MS); format: in vitro ADME; conditions: human serum, 37° C.
Protocol: Serum Stability: Peptide stocks (600 μM) were prepared in water and 50 μL added to 950 μL human serum (Merck) before incubation at 37° C. […] The supernatant was analysed by LC-MS and quantified using the sum of the two largest charge state intensities (1: 9+, 10+; 23,24: 3+, 4+).

**Q.** With `CC[C@H](C)[C@H](NC(=O)[C@H](CCC(=O)O)NC(=O)[C@H](CCCCN)NC(=O)[C@H](CCCNC(=N)N)NC(=O)[C@H](CC(C)C)NC(=O)[C@H](C)NC(=O)[C@H](Cc1ccc(O)cc1)NC(=O)[C@H](CC(N)=O)NC(=O)[C@H](CCCNC(=N)N)NC(=O)[C@H](CCC(=O)O)NC(=O)[C@H](CCC(=O)O)NC(=O)[C@H](CC(C)C)NC(=O)[C@H](CCC(N)=O)NC(=O)[C@H](CCC(=O)O)NC(=O)[C@@H](NC(=O)[C@H](CCC(=O)O)NC(=O)[C@@H]1CC(=O)NCCCC[C@H](NC(=O)[C@H](CCC(=O)O)NC(=O)[C@H](CCC(=O)O)NC(=O)[C@@H](NC(=O)[C@@H](NC(=O)[C@H](CC(C)C)NC(=O)[C@H](CCC(=O)O)NC(=O)[C@H](CCC(=O)O)NC(=O)[C@H](C)NC(=O)[C@H](CCC(=O)O)NC(C)=O)C(C)C)C(C)C)C(=O)N[C@@H](C(C)C)C(=O)N[C@@H](CC(C)C)C(=O)N[C@@H](CCC(=O)O)C(=O)N1)[C@@H](C)CC)C(=O)N[C@@H](CCC(=O)O)C(=O)N[C@@H](CC(=O)O)C(=O)N[C@@H](CC(C)C)C(=O)N[C@@H](CCC(N)=O)C(=O)N[C@@H](CCCCN)C(=O)N[C@@H](CCC(N)=O)C(N)=O` [Peptide 17] (Ac-EAEELVVEEKVLEDEIEQLEERNYALRKEIEDLQKQ-NH2; lactam 10-14) as the molecule, how does the “effect of lactamisation on antagonism” value ([1]; P=0.24) read?
**A.** The value was “did not lead to a significant increase in antagonism”.

**Q.** What about the “Tm (° C.)” value [2] of the same molecule?
**A.** The value was 64.0 ± 0.8 °C.

**Q.** And the “ΔG” value [3]?
**A.** The value was -9.766 ± 0.0669 kcal/mol.

**Q.** What about the “ΔH” value [3] of the same molecule?
**A.** The value was -14.1 ± 0.402 kcal/mol.

**Q.** What about the “−TΔS” value [3] of the same molecule?
**A.** Its value is 4.336 ± 0.406 kcal/mol.

**Q.** And the “Stoichiometry, n” value [3]?
**A.** The value was 1.20 ± 0.02.

**Q.** What about the “change in fraction helicity from lactamisation” value [4] of the same molecule?
**A.** Its value is about 5%.

**Q.** For `CC[C@H](C)[C@H](NC(=O)[C@H](CCC(=O)O)NC(=O)[C@H](CCCCN)NC(=O)[C@H](CCCNC(=N)N)NC(=O)[C@H](CC(C)C)NC(=O)[C@H](C)NC(=O)[C@H](Cc1ccc(O)cc1)NC(=O)[C@H](CC(N)=O)NC(=O)[C@H](CCCNC(=N)N)NC(=O)[C@H](CCC(=O)O)NC(=O)[C@H](CCC(=O)O)NC(=O)[C@H](CC(C)C)NC(=O)[C@H](CCC(N)=O)NC(=O)[C@H](CCC(=O)O)NC(=O)[C@@H](NC(=O)[C@H](CCC(=O)O)NC(=O)[C@H](CCC(=O)O)NC(=O)[C@H](CCC(=O)O)NC(=O)[C@H](CC(C)C)NC(=O)[C@@H](NC(=O)[C@H](CC(=O)O)NC(=O)[C@H](CCC(=O)O)NC(=O)[C@H](CCC(=O)O)NC(=O)[C@@H](NC(=O)[C@@H](NC(=O)[C@H](CC(C)C)NC(=O)[C@H](CCC(=O)O)NC(=O)[C@H](CCC(=O)O)NC(=O)[C@H](C)NC(=O)[C@H](CCC(=O)O)NC(C)=O)C(C)C)C(C)C)C(C)C)[C@@H](C)CC)C(=O)N[C@H]1CCCCNC(=O)C[C@@H](C(=O)N[C@@H](CCC(N)=O)C(N)=O)NC(=O)[C@H](CCC(N)=O)NC(=O)[C@H](CC(C)C)NC(=O)[C@H](CC(=O)O)NC1=O` [Peptide 23] (Ac-EAEELVVEEDVLEEEIEQLEERNYALRKEIKDLQDQ-NH2; lactam 31-35 (inferred)), which “fold lower IC50 than 11” value ([1]; P=0.003) is on record?
**A.** The value was 1.6 fold.

**Q.** What about the “heterodimer ΔTm compared to parent sequence 11” value [2] of the same molecule?
**A.** The value was about 8 °C.

**Q.** And the “heterodimer ΔTm from lactamisation” value ([2]; cyclised vs its linear form)?
**A.** Its value is about 9 °C.

**Q.** What about the “Tm (° C.)” value [2] of the same molecule?
**A.** The value was 65.0 ± 1.4 °C.

**Q.** What about the Kd [3] of the same molecule?
**A.** The Kd was 86.6 ± 17 nM.

**Q.** What about the “ΔG” value [3] of the same molecule?
**A.** Its value is -9.661 ± 0.117 kcal/mol.

**Q.** And the “ΔH” value [3]?
**A.** The value was -23.6 ± 0.607 kcal/mol.

**Q.** What about the “−TΔS” value [3] of the same molecule?
**A.** The value was 13.95 ± 0.619 kcal/mol.

**Q.** And the “Stoichiometry, n” value [3]?
**A.** The value was 0.97 ± 0.02.

**Q.** And the “change in fraction helicity from lactamisation” value [4]?
**A.** The value was about 8%.

**Q.** What about the remaining at 96 h, 30 μM ([5]; after 96 hours, read-out: peak intensities relative to starting values) of the same molecule?
**A.** The remaining at 96 h, 30 μM was 17%.

**Q.** What about the metabolised at 24 h, 30 μM ([5]; at 24 hours, read-out: degraded) of the same molecule?
**A.** Its metabolised at 24 h, 30 μM is 21%.

**Q.** Which results are given for `CC[C@H](C)[C@H](NC(=O)[C@H](CCC(=O)O)NC(=O)[C@H](CCCCN)NC(=O)[C@H](CCCNC(=N)N)NC(=O)[C@H](CC(C)C)NC(=O)[C@H](C)NC(=O)[C@H](Cc1ccc(O)cc1)NC(=O)[C@H](CC(N)=O)NC(=O)[C@H](CCCNC(=N)N)NC(=O)[C@H](CCC(=O)O)NC(=O)[C@H](CCC(=O)O)NC(=O)[C@H](CC(C)C)NC(=O)[C@H](CCC(N)=O)NC(=O)[C@H](CCC(=O)O)NC(=O)[C@@H](NC(=O)[C@H](CCC(=O)O)NC(=O)[C@H](CCC(=O)O)NC(=O)[C@H](CCC(=O)O)NC(=O)[C@H](CC(C)C)NC(=O)[C@@H](NC(=O)[C@H](CC(=O)O)NC(=O)[C@H](CCC(=O)O)NC(=O)[C@H](CCC(=O)O)NC(=O)[C@@H](NC(=O)[C@@H](NC(=O)[C@H](CC(C)C)NC(=O)[C@@H]1CC(=O)NCCCC[C@H](NC(C)=O)C(=O)N[C@@H](CCC(=O)O)C(=O)N[C@@H](C)C(=O)N[C@@H](CCC(=O)O)C(=O)N1)C(C)C)C(C)C)C(C)C)[C@@H](C)CC)C(=O)N[C@@H](CCCCN)C(=O)N[C@@H](CC(=O)O)C(=O)N[C@@H](CC(C)C)C(=O)N[C@@H](CCC(N)=O)C(=O)N[C@@H](CC(=O)O)C(=O)N[C@@H](CCC(N)=O)C(N)=O` [Peptide 13] (Ac-KEAEDLVVEEDVLEEEIEQLEERNYALRKEIKDLQDQ-NH2; lactam 1-5)?
**A.** Tm (° C.) [2]: 58.5 ± 1.0 °C; change in fraction helicity from lactamisation [4]: ~1%
